Literature values as cited in patent US11111208B2, “Process for the preparation of safinamide mesylate intermediate” (RK Pharma Solutions LLC, priority 2019, dated 2021).
Where a name gives a salt, the structure may show the parent alone. Read-outs that look alike come from different tables or passages of the source.

Key:
[1] = not given; remark: listed apart in the source
[2] = system: MPTP-treated mice
[3] = system: rat kainic acid model
[4] = system: gerbil ischemia model

Question: Which solubility (in dimethyl sulfoxide) does the source give for C[C@H](NCc1ccc(OCc2cccc(F)c2)cc1)C(N)=O [Safinamide mesylate, (S)-2-[[4-[(3-fluorophenyl)methoxy]phenyl]methyl]aminopropanamide methanesulfonate (1:1)] here?
Answer: The solubility was “freely soluble”.

Question: And the solubility (in ethanol)?
Answer: Its solubility is “sparingly soluble”.

Question: What about the solubility (in ethyl acetate) of the same molecule?
Answer: Its solubility is “practically insoluble”.

Question: And the solubility (in methanol)?
Answer: Its solubility is “freely soluble”.

Question: What about the solubility (in water) of the same molecule?
Answer: Its solubility is “freely soluble”.

Question: What about the solubility ([1]; aqueous buffer pH 1.2) of the same molecule?
Answer: The solubility was “highly soluble”.

Question: And the solubility ([1]; aqueous buffer pH 4.5)?
Answer: The solubility was “highly soluble”.

Question: And the solubility ([1]; aqueous buffer pH 6.8)?
Answer: Its solubility is < 400 µg/mL.

Question: What about the solubility ([1]; aqueous buffer pH 7.5) of the same molecule?
Answer: The solubility was < 400 µg/mL.

Question: With C[C@H](NCc1ccc(OCc2cccc(F)c2)cc1)C(N)=O [Safinamide, (S)-2-[4-(3-fluorobenzyloxy)-benzylamino]propanamide] as the molecule, how does the “neuroprotective and neurorescuing effects” value [2] read?
Answer: The value was “neuroprotective and neurorescuing effects”.

Question: And the “neuroprotective and neurorescuing effects” value [3]?
Answer: The value was “neuroprotective and neurorescuing effects”.

Question: What about the “neuroprotective and neurorescuing effects” value [4] of the same molecule?
Answer: The value was “neuroprotective and neurorescuing effects”.
